Results on 33 compounds are retold here after patent US20170369492A1 (Takeda Pharmaceutical Company Limited, priority 2014, published 2017).

As usually defined, the EC50 is the concentration giving half of the maximal effect.

In this assay the target is T1, human GPR43 (Homo sapiens, UniProt O15552).
T1 construct: expressed in transfected cells
T1 sequence (O15552 1-330): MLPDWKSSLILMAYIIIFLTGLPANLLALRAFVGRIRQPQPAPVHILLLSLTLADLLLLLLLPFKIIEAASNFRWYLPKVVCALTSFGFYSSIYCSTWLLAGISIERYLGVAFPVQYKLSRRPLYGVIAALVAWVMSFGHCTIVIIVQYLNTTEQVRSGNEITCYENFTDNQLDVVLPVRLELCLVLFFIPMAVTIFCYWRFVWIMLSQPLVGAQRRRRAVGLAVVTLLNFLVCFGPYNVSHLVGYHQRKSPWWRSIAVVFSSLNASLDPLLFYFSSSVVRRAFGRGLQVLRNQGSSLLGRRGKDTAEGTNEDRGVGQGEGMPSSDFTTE
As to the kind of experiment: Ca-Flux Functional Assay: Determination of Agonist/Positive Allosteric Modulator (PAM) Activity. It is filed as cell-based. Conditions: CHO-K1 Gα16 cells stably expressing human GPR43; compound added in the presence of EC20 sodium acetate; intracellular Ca2+ by FLIPR; agonist/PAM activity not distinguished. As for the experimental part: Ca-Flux Functional Assay: Determination of Agonist/Positive Allosteric Modulator (PAM) Activity
GPR43 agonist/PAM activity was determined by measuring changes in intracellular calcium levels using a Ca^2+ sensitive fluorescent dye. The changes in fluorescent signal were monitored by FLIPR (manufactured by Molecular Devices). GPR43 mediated increases in intracellular Ca^2+ concentration were readily detected upon activation with sodium acetate. Prior to the assay (24 hours), CHO-K1 Gα16 cells stably expressing human GPR43 were-seeded in cell culture medium in black, clear-bottom 384-well plates (Corning Inc) and grown overnight at 37° C., 5% CO2. On the day of the assay, cell culture media was removed and cells were loaded with Calcium 5 Dye (Molecular Devices) diluted in HBSS containing 25 mM HEPES, 2.5 mM Probenecid, 0.1% BSA for 1 hour at 37° C., 5% CO2. 10 point half log concentration response curves of sodium acetate from 10 mM were conducted prior to the testing of compounds to calculate the sodium acetate concentration that produces 20% of the maximal response (EC20). Test compounds (at to point half log concentration response curves from 10 μM) were added in the presence of sodium acetate to achieve a final concentration that produces approximately 20% maximal response as calculated from the previous experiment. The changes in fluorescent signal were monitored by FLIPR upon addition of the compound/EC20 sodium acetate mix. The EC50 values were determined from ten point concentration response curves. Curves were generated using the average of two wells for each data point.
The above assay detects both GPR43 receptor agonists and positive allosteric modulators of the GPR43 receptor, without distinguishing between the two. Activity in either regard is useful in the treatment of conditions associated with GPR43 receptor activity.
Turning to `CN(C1CCCCC1)S(=O)(=O)c1c(N)n(C2CCCCC2)c2nccnc12` [Example 71, 6-amino-N,5-dicyclohexyl-N-methyl-5H-pyrrolo[2,3-b]pyrazine-7-sulfonamide], the concentration giving a half-maximal response (EC50) turned out to be 8380 nM. For the compound `Nc1c(S(=O)(=O)N2CCCOCC2)c2nccnc2n1C1CCCCC1` [Example 72, 5-cyclohexyl-7-(1,4-oxazepane-4-sulfonyl)-5H-pyrrolo[2,3-b]pyrazin-6-amine], the EC50 is 1800 nM. As to `COC1CCN(S(=O)(=O)c2c(N)n(C3CCCCC3)c3nccnc23)CC1` [Example 73, 5-cyclohexyl-7-(4-methoxypiperidine-1-sulfonyl)-5H-pyrrolo[2,3-b]pyrazin-6-amine], the EC50 amounted to 488 nM. Turning to `Nc1c(S(=O)(=O)NCC2CCC2)c2nccnc2n1C1CCCCC1` [Example 74, 6-amino-N-(cyclobutylmethyl)-5-cyclohexyl-5H-pyrrolo[2,3-b]pyrazine-7-sulfonamide], the EC50 was 321 nM. `CC1(C)CCN(S(=O)(=O)c2c(N)n(C3CCCCC3)c3nccnc23)C1` [Example 75, 5-cyclohexyl-7-(3,3-dimethylpyrrrolidine-1-sulfonyl)-5H-pyrrolo[2,3-b]pyrazin-6-amine]: the EC50 is 1190 nM. Then `Nc1c(S(=O)(=O)N2CCCCCC2)c2nccnc2n1C1CCCCC1` [Example 77, 7-(azepane-1-sulfonyl)-5-cyclohexyl-5H-pyrrolo[2,3-b]pyrazin-6-amine], with 290 nM; and `Nc1c(S(=O)(=O)N2CCSCC2)c2nccnc2n1C1CCCCC1` [Example 78, 5-cyclohexyl-7-(thiomorpholine-4-sulfonyl)-5H-pyrrolo[2,3-b]pyrazin-6-amine], with 337 nM; and `CC(=O)N(C)C1CCN(S(=O)(=O)c2c(N)n(C3CCCCC3)c3nccnc23)CC1` [Example 79, N-(1-{6-amino-5-cyclohexyl-5H-pyrrolo[2,3-b]pyrazine-7-sulfonyl}piperidin-4-yl)-N-methylacetamide], with 5970 nM. As for `Nc1c(S(=O)(=O)NCC2COC2)c2nccnc2n1C1CCCCC1` [Example 80, 6-amino-5-cyclohexyl-N-(oxetan-3-ylmethyl)-5H-pyrrolo[2,3-b]pyrazine-7-sulfonamide], the half-maximal effective concentration (EC50) was determined as 6070 nM.

As to `Nc1c(S(=O)(=O)N2CCC(Cc3ccccc3)CC2)c2nccnc2n1C1CCCCC1` [Example 81, 7-(4-benzylpiperidine-1-sulfonyl)-5-cyclohexyl-5H-pyrrolo[2,3-b]pyrazin-6-amine], the EC50 worked out at 1250 nM. Regarding `Nc1c(S(=O)(=O)NCCC(F)(F)F)c2nccnc2n1C1CCCCC1` [Example 82, 6-amino-5-cyclohexyl-N-(3,3,3-trifluoropropyl)-5H-pyrrolo[2,3-b]pyrazine-7-sulfonamide], the concentration giving a half-maximal response (EC50) stood at 821 nM.

Take `Nc1c(S(=O)(=O)N2CCC(c3ccccc3)CC2)c2nccnc2n1C1CCCCC1` [Example 83, 5-cyclohexyl-7-(4-phenylpiperidine-1-sulfonyl)-5H-pyrrolo[2,3-b]pyrazin-6-amine]: the 50% effective concentration (EC50) was found to be 931 nM. In the case of `Nc1c(S(=O)(=O)NCCc2ccccc2)c2nccnc2n1C1CCCCC1` [Example 84, 6-amino-5-cyclohexyl-N-(2-phenylethyl)-5H-pyrrolo[2,3-b]pyrazine-7-sulfonamide], the EC50 amounted to 3290 nM. As to `Nc1c(S(=O)(=O)N2CCC(Oc3ccccc3)CC2)c2nccnc2n1C1CCCCC1` [Example 85, 5-cyclohexyl-7-(4-phenoxypiperidine-1-sulfonyl)-5H-pyrrolo[2,3-b]pyrazin-6-amine], the concentration for a half-maximal effect (EC50) is 1060 nM.

Consider `Nc1c(S(=O)(=O)N2CCC(c3ccccc3)C2)c2nccnc2n1C1CCCCC1` (stereo not drawn) [Example 86, 5-cyclohexyl-7-(3-phenylpyrrolidine-1-sulfonyl)-5H-pyrrolo[2,3-b]pyrazin-6-amine], for which the EC50 is 1720 nM. In the case of `Nc1c(S(=O)(=O)N2CCC(C(F)(F)F)CC2)c2nccnc2n1C1CCCCC1` [Example 87, 5-cyclohexyl-7-[4-(trifluoromethyl)piperidine-1-sulfonyl]-5H-pyrrolo[2,3-b]pyrazin-6-amine], the EC50 was 1550 nM. Under `COCC1CCN(S(=O)(=O)c2c(N)n(C3CCCCC3)c3nccnc23)C1` (stereo not drawn) [Example 88, 5-cyclohexyl-7-[3-(methoxyrnethyl)pyrrolidine-1-sulfonyl]-5H-pyrrolo[2,3-b]pyrazin-6-amine] stands 3150 nM. For the compound `Nc1c(S(=O)(=O)NCC2CC2)c2nccnc2n1C1CCCCC1` [Example 89, 6-amino-5-cyclohexyl-N-(cyclopropylmethyl)-5H-pyrrolo[2,3-b]pyrazine-7-sulfonamide], the EC50 is 658 nM.

For the compound `COCCNS(=O)(=O)c1c(N)n(C2CCCCC2)c2nccnc12` [Example 90, 6-amino-5-cyclohexyl-N-(2-methoxyethyl)-5H-pyrrolo[2,3-b]pyrazine-7-sulfonamide], the half-maximal effective concentration (EC50) stood at 6180 nM. Under `COC1CCN(S(=O)(=O)c2c(N)n(C3CCCCC3)c3nccnc23)C1` (stereo not drawn) [Example 91, 5-cyclohexyl-7-(3-methoxypyrrolidine-1-sulfonyl)-5H-pyrrolo[2,3-b]pyrazin-6-amine] stands 8350 nM; under `CC1(C)CCCN(S(=O)(=O)c2c(N)n(C3CCCCC3)c3nccnc23)C1` [Example 92, 5-cyclohexyl-7-(3,3-dimethylpiperidine-1-sulfonyl)-5H-pyrrolo[2,3-b]pyrazin-6-amine], 440 nM; under `Nc1c(S(=O)(=O)N2CCC(O)CC2)c2nccnc2n1C1CCCCC1` [Example 93, 1-{6-amino-5-cyclohexyl-5H-pyrrolo[2,3-b]pyrazine-7-sulfonyl}piperidin-4-ol], 5700 nM.

As to `Nc1c(S(=O)(=O)N2CCc3ccccc3C2)c2nccnc2n1C1CCCCC1` [Example 94, 5-cyclohexyl-7-(1,2,3,4-tetrahydroisoquinoline-2-sulfonyl)-5H-pyrrolo[2,3-b]pyrazin-6-amine], the EC50 worked out at 308 nM.

Take `CCC(C)NS(=O)(=O)c1c(N)n(C2CCCCC2)c2nccnc12` (stereo not drawn) [Example 95, 6-amino-N-(butan-2-yl)-5-cyclohexyl-5H-pyrrrolo[2,3-b]pyrazine-7-sulfonamide]: the EC50 amounted to 334 nM. Under `Nc1c(S(=O)(=O)NCC2CCCO2)c2nccnc2n1C1CCCCC1` (stereo not drawn) [Example 96, 6-amino-5-cyclohexyl-N-(oxolan-2-ylmethyl)-5H-pyrrolo[2,3-b]pyrazine-7-sulfonamide] stands 1950 nM.

Consider `Nc1c(S(=O)(=O)N2Cc3ccccc3C2)c2nccnc2n1C1CCCCC1` [Example 97, 5-cyclohexyl-7-(2,3-dihydro-1H-isoindole-2-sulfonyl)-5H-pyrrolo[2,3-b]pyrazin-6-amine], for which the EC50 worked out at 173 nM. Then `Nc1c(S(=O)(=O)N2CCN(C(=O)c3ccc(F)cc3)CC2)c2nccnc2n1C1CCCCC1` [Example 98, 5-cyclohexyl-7-{4-[(4-fluorophenyl)carbonyl]piperazine-1-sulfonyl}-5H-pyrrolo[2,3-b]pyrazin-6-amine], with 2810 nM; and `Nc1c(S(=O)(=O)N2CC(Oc3ccccc3)C2)c2nccnc2n1C1CCCCC1` [Example 99, 5-cyclohexyl-7-(3-phenoxyazetidine-1-sulfonyl)-5H-pyrrolo[2,3-b]pyrazin-6-amine], with 1550 nM; and `Nc1c(S(=O)(=O)N2CC(N3CCCCC3)C2)c2nccnc2n1C1CCCCC1` [Example 100, 5-cyclohexyl-7-[3-(piperidin-1-yl)azetidine-1-sulfonyl]-5H-pyrrolo[2,3-b]pyrazin-6-amine], with 3930 nM. In the case of `Nc1c(S(=O)(=O)N2CC(n3cccn3)C2)c2nccnc2n1C1CCCCC1` [Example 101, 5-cyclohexyl-7-[3-(1H-pyrazol-1-yl)azetidine-1-sulfonyl]-5H-pyrrolo[2,3-b]pyrazin-6-amine], the 50% effective concentration (EC50) was determined as 7030 nM. Under `CC1CCCN(S(=O)(=O)c2c(N)n(C3CCCCC3)c3nccnc23)C1` (stereo not drawn) [Example 102, 5-cyclohexyl-7-(3-methylpiperidine-1-sulfonyl)-5H-pyrrolo[2,3-b]pyrazin-6-amine] stands 258 nM. As to `Nc1c(S(=O)(=O)NCCc2nccs2)c2nccnc2n1C1CCCCC1` [Example 103, 6-amino-5-cyclohexyl-N-[2-(1,3-thiazol-2-yl)ethyl]-5H-pyrrolo[2,3-b]pyrazine-7-sulfonamide], the half-maximal effective concentration (EC50) was 471 nM. For the compound `Nc1c(S(=O)(=O)N2C3CCC2CC(O)C3)c2nccnc2n1C1CCCCC1` (stereo not drawn) [Example 104, 8-{6-amino-5-cyclohexyl-5H-pyrrolo[2,3-b]pyrazine-7-sulfonyl}-8-azabicyclo[3.2.1]octan-3-ol], the concentration giving a half-maximal response (EC50) turned out to be 3080 nM.
